Results: ChEMBL document CHEMBL5131475, “Metallo-β-lactamases inhibitor fisetin attenuates meropenem resistance in NDM-1-producing Escherichia coli” (Eur J Med Chem, 2022)
Values after ≈ are worked out from the molar mass of the structure shown. Active and inactive are the calls of the source. The rule behind the calls is not given here.

What was measured:
[1] = Inhibition of metallo-beta-lactamase NDM-9 (unknown origin) using nitrocefin as substrate preincubated for 15 min followed by substrate addition and measured after 15 min by microplate reader assay; set-up: species or system Bacteria
Escherichia coli [2] = experiment: Synergistic antibacterial activity against NDM-1 positive Escherichia coli ZC-YN3 isolates assessed as fractional Inhibitory concentration index incubated for 18 to 24 hrs in presence of lincomycin by CLSI based broth microdilution method; type: functional; conditions: time 18-24 hrs
Escherichia coli [3] = experiment: Synergistic antibacterial activity against NDM-1 positive Escherichia coli ZC-YN3 isolates assessed as fractional Inhibitory concentration index incubated for 18 to 24 hrs in presence of kanamycin by CLSI based broth microdilution method; type: functional; conditions: time 18-24 hrs
Escherichia coli [4] = experiment: Synergistic antibacterial activity against NDM-1 positive Escherichia coli ZC-YN3 isolates assessed as fractional Inhibitory concentration index incubated for 18 to 24 hrs in presence of spectinomycin by CLSI based broth microdilution method; type: functional; conditions: time 18-24 hrs
Bacteria [5] = test system: Bacteria
Description: Binding affinity to NDM-1 V73A mutant (unknown origin) assessed as binding constant by fluorescence quenching method

Escherichia coli [6] = experiment: Antibacterial activity against NDM-1 positive Escherichia coli ZC-YN3 isolates assessed as spectinomycin MIC incubated for 18 to 24 hrs by CLSI based broth microdilution method; type: functional; conditions: time 18-24 hrs
Escherichia coli [7] = experiment: Synergistic antibacterial activity against pET28a NDM-1 positive Escherichia coli BL21(DE3) isolates assessed as fractional Inhibitory concentration index incubated for 18 to 24 hrs in presence of tetracycline by CLSI based broth microdilution method; type: functional; conditions: time 18-24 hrs
Escherichia coli [8] = experiment: Synergistic antibacterial activity against NDM-1 negative Escherichia coli BL21(DE3) (pET28a) isolates assessed as fractional Inhibitory concentration index incubated for 18 to 24 hrs in presence of meropenem by CLSI based broth microdilution method; type: functional; conditions: time 18-24 hrs
Escherichia coli [9] = experiment: Antibacterial activity against NDM-1 positive Escherichia coli ZC-YN3 isolates assessed as rifampicin MIC incubated for 18 to 24 hrs by CLSI based broth microdilution method; type: functional; conditions: time 18-24 hrs
Escherichia coli [10] = experiment: Synergistic antibacterial activity against NDM-1 positive Escherichia coli ZC-YN3 isolates assessed as fractional Inhibitory concentration index incubated for 18 to 24 hrs in presence of vancomycin by CLSI based broth microdilution method; type: functional; conditions: time 18-24 hrs
Escherichia coli [11] = experiment: Synergistic antibacterial activity against NDM-1 positive Escherichia coli ZC-YN3 isolates assessed as fractional Inhibitory concentration index incubated for 18 to 24 hrs in presence of ampicillin by CLSI based broth microdilution method; type: functional; conditions: time 18-24 hrs
[12] = Inhibition of metallo-beta-lactamase IMP-1 (unknown origin) using nitrocefin as substrate preincubated for 15 min followed by substrate addition and measured after 15 min by microplate reader assay; set-up: species or system Bacteria
Escherichia coli [13] = experiment: Antibacterial activity against NDM-1 positive Escherichia coli ZC-YN3 isolates assessed as cefotaxime MIC incubated for 18 to 24 hrs by CLSI based broth microdilution method; type: functional; conditions: time 18-24 hrs
Escherichia coli [14] = experiment: Synergistic antibacterial activity against NDM-1 positive Escherichia coli ZC-YN3 isolates assessed as fractional Inhibitory concentration index incubated for 18 to 24 hrs in presence of florfenicol by CLSI based broth microdilution method; type: functional; conditions: time 18-24 hrs
Escherichia coli [15] = experiment: Antibacterial activity against pET28a-NDM-1 positive Escherichia coli BL21(DE3) isolates assessed as doxycycline MIC incubated for 18 to 24 hrs by CLSI based broth microdilution method; type: functional; conditions: time 18-24 hrs
Escherichia coli [16] = experiment: Synergistic antibacterial activity against NDM-1 positive Escherichia coli ZC-YN3 isolates assessed as fractional Inhibitory concentration index incubated for 18 to 24 hrs in presence of ciprofloxacin by CLSI based broth microdilution method; type: functional; conditions: time 18-24 hrs
Escherichia coli [17] = experiment: Antibacterial activity against pET28a-NDM-1 positive Escherichia coli BL21(DE3) isolates assessed as meropenem MIC incubated for 18 to 24 hrs by CLSI based broth microdilution method; type: functional; conditions: time 18-24 hrs
Bacteria [18] = experiment: Inhibition of NDM-1 H250A mutant activity (unknown origin) in presence of zinc ion
[19] = Inhibition of class A […]beta-lactamase KPC-2 (unknown origin) using nitrocefin as substrate preincubated for 15 min followed by substrate addition and measured after 15 min by microplate reader assay; set-up: species or system Bacteria
Mus musculus = experiment: Synergistic antibacterial activity in BALB/c mouse infected with NDM-1 positive Escherichia coli ZJ487 assessed as increase in survival rate at 50 mg/kg, sc administered every 12 hrs and measured after 96 hrs post infection in presence of meropenem; type: functional
Escherichia coli [20] = experiment: Synergistic antibacterial activity against pET28a NDM-1 positive Escherichia coli BL21(DE3) isolates assessed as fractional Inhibitory concentration index incubated for 18 to 24 hrs in presence of cefotaxime by CLSI based broth microdilution method; type: functional; conditions: time 18-24 hrs
Escherichia coli [21] = experiment: Synergistic antibacterial activity against pET28a NDM-1 positive Escherichia coli BL21(DE3) isolates assessed as fractional Inhibitory concentration index incubated for 18 to 24 hrs in presence of colistin by CLSI based broth microdilution method; type: functional; conditions: time 18-24 hrs
Escherichia coli [22] = experiment: Antibacterial activity against pET28a-NDM-1 positive Escherichia coli BL21(DE3) isolates assessed as lincomycin MIC incubated for 18 to 24 hrs by CLSI based broth microdilution method; type: functional; conditions: time 18-24 hrs
Escherichia coli [23] = experiment: Synergistic antibacterial activity against pET28a NDM-1 positive Escherichia coli BL21(DE3) isolates assessed as fractional Inhibitory concentration index incubated for 18 to 24 hrs in presence of spectinomycin by CLSI based broth microdilution method; type: functional; conditions: time 18-24 hrs
Escherichia coli [24] = experiment: Antibacterial activity against pET28a-NDM-1 positive Escherichia coli BL21(DE3) isolates assessed as cefotaxime MIC incubated for 18 to 24 hrs by CLSI based broth microdilution method; type: functional; conditions: time 18-24 hrs
[25] = Inhibition of metallo-beta-lactamase NDM-1 (unknown origin) using nitrocefin as substrate preincubated for 15 min followed by substrate addition and measured after 15 min by microplate reader assay; set-up: species or system Bacteria
Escherichia coli [26] = experiment: Antibacterial activity against NDM-1 negative Escherichia coli ATCC25922 isolates assessed as meropenem MIC incubated for 18 to 24 hrs by CLSI based broth microdilution method; type: functional; conditions: time 18-24 hrs
Escherichia coli [27] = experiment: Antibacterial activity against NDM-1 positive Escherichia coli ZC-YN3 isolates assessed as vancomycin MIC incubated for 18 to 24 hrs by CLSI based broth microdilution method; type: functional; conditions: time 18-24 hrs
Bacteria [28] = experiment: Inhibition of NDM-1 V73A mutant activity (unknown origin) in presence of zinc ion
Escherichia coli [29] = experiment: Synergistic antibacterial activity against pET28a NDM-1 positive Escherichia coli BL21(DE3) isolates assessed as fractional Inhibitory concentration index incubated for 18 to 24 hrs in presence of ampicillin by CLSI based broth microdilution method; type: functional; conditions: time 18-24 hrs
Escherichia coli [30] = experiment: Antibacterial activity against pET28a-NDM-1 positive Escherichia coli BL21(DE3) isolates assessed as vancomycin MIC incubated for 18 to 24 hrs by CLSI based broth microdilution method; type: functional; conditions: time 18-24 hrs
Bacteria [31] = experiment: Inhibition of NDM-1 M248A mutant activity (unknown origin) in presence of zinc ion
Bacteria [32] = experiment: Binding affinity to NDM-1 M248A mutant (unknown origin) assessed as binding free energy by fluorescence quenching method
Escherichia coli [33] = experiment: Antibacterial activity against NDM-1 positive Escherichia coli ZC-YN3 isolates assessed as kanamycin MIC incubated for 18 to 24 hrs by CLSI based broth microdilution method; type: functional; conditions: time 18-24 hrs
Escherichia coli [34] = experiment: Synergistic antibacterial activity against pET28a NDM-1 positive Escherichia coli BL21(DE3) isolates assessed as fractional Inhibitory concentration index incubated for 18 to 24 hrs in presence of doxycycline by CLSI based broth microdilution method; type: functional; conditions: time 18-24 hrs

O=c1c(O)c(-c2ccc(O)c(O)c2)oc2cc(O)ccc12 [FISETIN]
IC50 [1]: 25.98 µg/mL (≈ 90.8 µM) | fractional inhibitory concentration index (FICI) (Escherichia coli [2]): 1.13 | fractional inhibitory concentration index (FICI) (Escherichia coli [3]): 1.13 | fractional inhibitory concentration index (FICI) (Escherichia coli [4]): 1.13 | Ka (Bacteria [5]): 11.1 10^5L/mol | MIC (Escherichia coli [6]): 853 µg/mL | fractional inhibitory concentration index (FICI) (Escherichia coli [7]): 0.96 | fractional inhibitory concentration index (FICI) (Escherichia coli [8]): 1.13 | MIC (Escherichia coli [9]): 10.7 µg/mL | fractional inhibitory concentration index (FICI) (Escherichia coli [10]): 0.96 | fractional inhibitory concentration index (FICI) (Escherichia coli [11]): 1.13 | IC50 [12]: 56.13 µg/mL (≈ 196 µM) | MIC (Escherichia coli [13]): 512 µg/mL | fractional inhibitory concentration index (FICI) (Escherichia coli [14]): 0.96 | MIC (Escherichia coli [15]): 107 µg/mL | fractional inhibitory concentration index (FICI) (Escherichia coli [16]): 1.13 | MIC (Escherichia coli [17]): 4.67 µg/mL | inhibition (Bacteria [18]): Active | IC50 [19]: 2.63 µg/mL (≈ 9.19 µM) | Activity (Mus musculus): 60% | fractional inhibitory concentration index (FICI) (Escherichia coli [20]): 1.13 | fractional inhibitory concentration index (FICI) (Escherichia coli [21]): 1.13 | MIC (Escherichia coli [22]): 853 µg/mL | fractional inhibitory concentration index (FICI) (Escherichia coli [23]): 0.96 | MIC (Escherichia coli [24]): 512 µg/mL | IC50 [25]: 9.66 µg/mL (≈ 33.7 µM) | MIC (Escherichia coli [26]): 0.01 µg/mL | MIC (Escherichia coli [27]): 427 µg/mL | inhibition (Bacteria [28]): Active | fractional inhibitory concentration index (FICI) (Escherichia coli [29]): 0.96 | MIC (Escherichia coli [30]): 683 µg/mL | inhibition (Bacteria [31]): Active | Activity (Bacteria [32]): -16.2 kcal/mol | MIC (Escherichia coli [33]): 853 µg/mL | fractional inhibitory concentration index (FICI) (Escherichia coli [34]): 0.96
